{"source": "PubChem BioAssay AID1259411", "about": "(Chemical Carcinogenesis Research Information System (CCRIS), 2018)", "test_system": "rodent carcinogenicity bioassays, tumor incidence", "experiment": "CCRIS carcinogenicity studies", "outline": "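NCI-built, expert-reviewed records of carcinogenicity and related test outcomes (mutagenicity, tumor promotion/inhibition) compiled from published and report sources, historical span 1985-2011, not updated.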", "note": "The source made the active and inactive calls. How the calls were made is not given here.", "data": [{"smiles": "c1ccc2c(c1)cc1ccc3cccc4ccc2c1c34", "values": [{"measurement": "carcinogen call", "setting": "Species: MOUSE, Strain/Sex: SWISS/FEMALE, Route: DERMAL, Dose: 0, 2.2, 6.6, 20 NMOL IN 50 µL ACETONE 2/WK FOR 48 WK (STUDY DURATION: 61 WK), Dose: 0, 2.2, 6.6, 20 NMOL IN 50 µL ACETONE 2/WK FOR 48 WK (STUDY DURATION: 61 WK), Tumor Site: Type of Lesion: SKIN: PAPILLOMA, SKIN: SQUAMOUS CELL CARCINOMA", "result": "active; positive"}, {"measurement": "carcinogen call", "setting": "Species: MOUSE, Strain/Sex: SWISS/FEMALE, Route: DERMAL, Dose: 0, 22.2, 66.6, 200 NMOL IN 50 µL ACETONE 2/WK FOR 48 WK (STUDY DURATION: 61 WK), Dose: 0, 22.2, 66.6, 200 NMOL IN 50 µL ACETONE 2/WK FOR 48 WK (STUDY DURATION: 61 WK), Tumor Site: Type of Lesion: SKIN: SQUAMOUS CELL CARCINOMA", "result": "active; positive"}, {"measurement": "carcinogen call", "setting": "Species: MOUSE, Strain/Sex: SWISS/FEMALE, Route: DERMAL, Dose: 0.01-0.5%, 3/WK, Tumor Site: Type of Lesion: INTEGUMENTARY SYSTEM (SKIN): CARCINOMA, PAPILLOMA", "result": "active; positive"}, {"measurement": "carcinogen call", "setting": "Species: MOUSE, Strain/Sex: SWISS/FEMALE, Route: DERMAL, Dose: 0.1-9 UG, 3/WK FOR < 700 D, Tumor Site: Type of Lesion: INTEGUMENTARY SYSTEM (SKIN)", "result": "active; positive"}, {"measurement": "carcinogen call", "setting": "Species: MOUSE, Strain/Sex: WILDTYPE/MALE, Route: GAVAGE, Dose: 0, 13, 39 MG/KG BW IN 0.1 ML SOY OIL 3/WK FOR 13 WK (STUDY DURATION: 291 D), Dose: 0, 13, 39 MG/KG BW IN 0.1 ML SOY OIL 3/WK FOR 13 WK (STUDY DURATION: 291 D), Tumor Site: Type of Lesion: LYMPHATIC SYSTEM: LYMPHOMA, FORESTOMACH: TUMOR", "result": "active; positive"}, {"measurement": "carcinogen call", "setting": "Species: Mouse, Strain/Sex: 129 x MF1 Gstp-null (14-15 males and females), Route: Intraperitoneal, Dose: 200 mg/kg, once, study duration 5 mo, Tumor Site: Type of Lesion: Lung: adenoma (incidence 71% vs 27% in controls, multiplicity 3.0 vs 0.3 in controls)", "result": "inactive; negative"}, {"measurement": "carcinogen call", "setting": "Species: Mouse, Strain/Sex: 129 x MF1 wild type (14-16 males and females), Route: Intraperitoneal, Dose: 200 mg/kg, once, study duration 5 mo, Tumor Site: Type of Lesion: Lung: adenoma (incidence 29% vs 25% in controls, multiplicity 0.4 vs 0.3 in controls)", "result": "inactive; negative"}, {"measurement": "carcinogen call", "setting": "Species: RABBIT, Route: DERMAL, Dose: 0.001-0.5%, 5/WK, Tumor Site: Type of Lesion: INTEGUMENTARY SYSTEM (SKIN)", "result": "active; positive"}, {"measurement": "carcinogen call", "setting": "Species: RABBIT, Route: DERMAL, Tumor Site: Type of Lesion: INTEGUMENTARY SYSTEM (SKIN): PAPILLOMA, CARCINOMA", "result": "active; positive"}, {"measurement": "carcinogen call", "setting": "Species: RAT, Route: INTRATRACHEAL, Dose: 0.0005-2.5 MG, 1/MO FOR 10 MO, OBSERVED 2 YR, Tumor Site: Type of Lesion: LUNG", "result": "active; positive"}, {"measurement": "carcinogen call", "setting": "Species: RAT, Route: SUBCUTANEOUS, Dose: 0.05, 0.1, 0.5, 1.0 MG, SINGLE DOSE, Tumor Site: Type of Lesion: INJECTION SITE", "result": "active; positive"}, {"measurement": "carcinogen call", "setting": "Species: RAT, Route: SUBCUTANEOUS, Tumor Site: Type of Lesion: INJECTION SITE", "result": "active; positive"}, {"measurement": "carcinogen call", "setting": "Species: RAT, Strain/Sex: F344/MALE, Route: LUNG IMPLANT, Dose: 0, 50, 100, 200 UG IN BEESWAX/TRICAPRYLIN INTO LEFT LUNG ONCE (STUDY DURATION: 100 WK), Dose: 0, 50, 100, 200 UG IN BEESWAX/TRICAPRYLIN INTO LEFT LUNG ONCE (STUDY DURATION: 100 WK), Tumor Site: Type of Lesion: LUNG: SQUAMOUS CELL CARCINOMA", "result": "active; positive"}, {"measurement": "carcinogen call", "setting": "Species: RAT, Strain/Sex: F344/MALE, Route: PULMONARY IMPLANT, Dose: 0, 50, 100, 200 UG IN 50 µL BEESWAX/TRICAPRYLIN IMPLANTED FOR UP TO 100 WK (STUDY DURATION: 100 WK), Dose: 0, 50, 100, 200 UG IN 50 µL BEESWAX/TRICAPRYLIN IMPLANTED FOR UP TO 100 WK (STUDY DURATION: 100 WK), Tumor Site: Type of Lesion: LUNG: TUMOR", "result": "active; positive"}, {"measurement": "carcinogen call", "setting": "Species: RAT, Strain/Sex: F344/MALE, Route: SUBCUTANEOUS IMPLANT, Dose: 0, 8, 40, 200, 1000 UG IN 50 µL BEESWAX/TRICAPRYLIN IMPLANTED FOR UP TO 45 WK (STUDY DURATION: 45 WK), Dose: 0, 8, 40, 200, 1000 UG IN 50 µL BEESWAX/TRICAPRYLIN IMPLANTED FOR UP TO 45 WK (STUDY DURATION: 45 WK), Tumor Site: Type of Lesion: IMPLANT SITE: TUMOR", "result": "active; positive"}, {"measurement": "carcinogen call", "setting": "Species: RAT, Strain/Sex: OSBORNE-MENDEL/FEMALE, Route: INTRAPULMONARY IMPLANT, Dose: 0, 0.03, 0.1, 0.3 MG IN BEESWAX AND TRIOCTANOIN IMPLANTED IN LUNG (STUDY DURATION: 141 WK), Dose: 0, 0.03, 0.1, 0.3 MG IN BEESWAX AND TRIOCTANOIN IMPLANTED IN LUNG (STUDY DURATION: 141 WK), Tumor Site: Type of Lesion: LUNG: CARCINOMA", "result": "active; positive"}, {"measurement": "carcinogen call", "setting": "Species: RAT, Strain/Sex: OSBORNE-MENDEL/FEMALE, Route: LUNG IMPLANT, Dose: 0, 0.1, 0.3, 1.0 MG IN BEESWAX/TRIOCTANOIN (STUDY DURATION: LIFETIME), Dose: 0, 0.1, 0.3, 1.0 MG IN BEESWAX/TRIOCTANOIN (STUDY DURATION: LIFETIME), Tumor Site: Type of Lesion: LUNG: EPIDERMOID CARCINOMA, PLEOMORPHIC SARCOMA", "result": "active; positive"}, {"measurement": "carcinogen call", "setting": "Species: RAT, Strain/Sex: SPRAGUE-DAWLEY/FEMALE, Route: INJECTION, Dose: 0, 0.25, 1 UMOL PER MAMMARY GLAND (STUDY DURATION: 24 WK), Dose: 0, 0.25, 1 UMOL PER MAMMARY GLAND (STUDY DURATION: 24 WK), Tumor Site: Type of Lesion: MAMMARY GLAND: TUMOR", "result": "active; positive"}, {"measurement": "carcinogen call", "setting": "Species: RAT, Strain/Sex: SPRAGUE-DAWLEY/FEMALE, Route: INTRAVENOUS, Dose: 39 MG/KG, SINGLE DOSE, Tumor Site: Type of Lesion: MAMMARY GLAND: CARCINOMA", "result": "active; positive"}, {"measurement": "carcinogen call", "setting": "Species: RAT, Strain/Sex: SPRAGUE-DAWLEY/FEMALE, Route: INTRAVENOUS, Tumor Site: Type of Lesion: MAMMARY GLAND: CARCINOMA", "result": "active; positive"}, {"measurement": "carcinogen call", "setting": "Species: RAT, Strain/Sex: STRAIN-CD/FEMALE, Route: GAVAGE, Dose: 0, 50 UMOL IN 0.5 ML TRIOCTANOIN 1/WK FOR 8 WK (STUDY DURATION: 49 WK), Tumor Site: Type of Lesion: MAMMARY GLAND: FIBROADENOMA, DESMOPLASTIC ADENOMA, ADENOCARCINOMA", "result": "active; positive"}]}]}
